Assay results published in ChEMBL document CHEMBL4507268 (2021).

How the values were obtained:
[1] = target: Ankyrin repeat and protein kinase domain-containing protein 1 (Homo sapiens) (UniProt Q8NFD2); settings: Compound concentration 1000.0 nM
[2] = target: T1, Serine/threonine-protein kinase BRSK1 (Homo sapiens) (UniProt Q8TDC3); settings: Compound concentration 1000.0 nM
T1 sequence (whole entry): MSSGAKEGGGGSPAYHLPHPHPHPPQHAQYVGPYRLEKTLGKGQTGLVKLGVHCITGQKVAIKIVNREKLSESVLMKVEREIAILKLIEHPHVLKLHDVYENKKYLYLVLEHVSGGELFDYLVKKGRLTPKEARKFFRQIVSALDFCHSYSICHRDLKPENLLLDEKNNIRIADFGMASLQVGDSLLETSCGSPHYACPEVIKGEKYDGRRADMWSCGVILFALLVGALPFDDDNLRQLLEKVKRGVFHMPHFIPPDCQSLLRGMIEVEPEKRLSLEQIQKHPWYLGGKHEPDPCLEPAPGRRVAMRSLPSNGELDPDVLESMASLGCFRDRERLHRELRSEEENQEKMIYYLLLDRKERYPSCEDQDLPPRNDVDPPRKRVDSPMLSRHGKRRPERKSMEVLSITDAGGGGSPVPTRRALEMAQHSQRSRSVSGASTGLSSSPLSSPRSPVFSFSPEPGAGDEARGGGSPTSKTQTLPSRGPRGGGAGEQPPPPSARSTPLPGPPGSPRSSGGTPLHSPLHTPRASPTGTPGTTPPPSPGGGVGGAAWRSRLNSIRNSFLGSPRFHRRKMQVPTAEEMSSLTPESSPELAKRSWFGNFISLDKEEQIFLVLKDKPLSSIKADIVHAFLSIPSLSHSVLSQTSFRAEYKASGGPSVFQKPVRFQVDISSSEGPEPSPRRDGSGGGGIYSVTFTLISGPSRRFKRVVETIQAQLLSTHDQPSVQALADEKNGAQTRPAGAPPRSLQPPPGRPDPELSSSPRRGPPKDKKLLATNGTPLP

[3] = target: Mitotic checkpoint serine/threonine-protein kinase BUB1 (Homo sapiens) (UniProt O43683); settings: Compound concentration 1000.0 nM
[4] = target: T2, Serine/threonine-protein kinase DCLK2 (Homo sapiens) (UniProt Q8N568); settings: Compound concentration 1000.0 nM
T2 sequence (whole entry): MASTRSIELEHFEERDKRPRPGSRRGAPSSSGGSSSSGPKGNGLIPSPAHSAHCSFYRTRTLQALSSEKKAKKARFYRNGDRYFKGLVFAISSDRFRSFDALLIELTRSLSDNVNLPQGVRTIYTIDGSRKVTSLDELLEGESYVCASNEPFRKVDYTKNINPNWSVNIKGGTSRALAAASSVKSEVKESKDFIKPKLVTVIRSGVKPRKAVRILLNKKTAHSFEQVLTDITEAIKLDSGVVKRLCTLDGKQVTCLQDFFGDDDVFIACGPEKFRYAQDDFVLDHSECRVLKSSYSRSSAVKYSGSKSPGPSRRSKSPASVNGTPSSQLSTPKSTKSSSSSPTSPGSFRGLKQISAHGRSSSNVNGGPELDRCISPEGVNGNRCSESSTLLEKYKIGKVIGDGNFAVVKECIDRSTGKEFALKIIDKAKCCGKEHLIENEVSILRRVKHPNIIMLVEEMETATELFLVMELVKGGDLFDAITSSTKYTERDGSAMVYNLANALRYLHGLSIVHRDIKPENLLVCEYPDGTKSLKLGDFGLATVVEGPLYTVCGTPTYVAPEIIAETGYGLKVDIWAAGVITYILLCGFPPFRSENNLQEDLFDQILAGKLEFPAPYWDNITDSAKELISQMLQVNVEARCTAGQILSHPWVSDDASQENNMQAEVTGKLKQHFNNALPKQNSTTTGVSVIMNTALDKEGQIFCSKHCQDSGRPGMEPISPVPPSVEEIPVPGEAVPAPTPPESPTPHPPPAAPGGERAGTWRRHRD

[5] = target: Mitogen-activated protein kinase 4 (Homo sapiens) (UniProt P31152); settings: Compound concentration 1000.0 nM
[6] = target: Serine/threonine-protein kinase 10 (Homo sapiens) (UniProt O94804); settings: Compound concentration 1000.0 nM
[7] = target: Leucine-rich repeat serine/threonine-protein kinase 2 (Homo sapiens) (UniProt Q5S007); settings: Compound concentration 1000.0 nM
[8] = target: Serine/threonine-protein kinase Nek7 (Homo sapiens) (UniProt Q8TDX7); settings: Compound concentration 1000.0 nM
[9] = target: Serine/threonine-protein kinase N2 (Homo sapiens) (UniProt Q16513); settings: Compound concentration 1000.0 nM
[10] = target: Serine/threonine-protein kinase RIO1 (Homo sapiens) (UniProt Q9BRS2); settings: Compound concentration 1000.0 nM
[11] = target: Proto-oncogene tyrosine-protein kinase ROS (Homo sapiens) (UniProt P08922); settings: Compound concentration 1000.0 nM
[12] = target: T3, Testis-specific serine/threonine-protein kinase 1 (Homo sapiens) (UniProt Q9BXA7); settings: Compound concentration 1000.0 nM
T3 sequence (whole entry): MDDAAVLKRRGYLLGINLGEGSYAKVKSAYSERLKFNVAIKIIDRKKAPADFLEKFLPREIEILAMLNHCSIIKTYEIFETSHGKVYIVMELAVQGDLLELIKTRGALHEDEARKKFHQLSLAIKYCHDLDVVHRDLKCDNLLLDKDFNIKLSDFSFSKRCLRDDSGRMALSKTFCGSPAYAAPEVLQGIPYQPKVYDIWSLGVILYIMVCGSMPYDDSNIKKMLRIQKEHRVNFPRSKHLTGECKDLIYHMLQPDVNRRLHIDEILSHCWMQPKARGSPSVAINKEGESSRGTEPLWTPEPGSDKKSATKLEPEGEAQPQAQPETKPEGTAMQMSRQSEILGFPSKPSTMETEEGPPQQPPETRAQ

[13] = target: 5-hydroxytryptamine receptor 2A (Homo sapiens) (UniProt P28223); settings: Compound concentration 10.0 uM

Sequence of Serine/threonine-protein kinase N2 (Homo sapiens) (Q16513 whole entry, looked up): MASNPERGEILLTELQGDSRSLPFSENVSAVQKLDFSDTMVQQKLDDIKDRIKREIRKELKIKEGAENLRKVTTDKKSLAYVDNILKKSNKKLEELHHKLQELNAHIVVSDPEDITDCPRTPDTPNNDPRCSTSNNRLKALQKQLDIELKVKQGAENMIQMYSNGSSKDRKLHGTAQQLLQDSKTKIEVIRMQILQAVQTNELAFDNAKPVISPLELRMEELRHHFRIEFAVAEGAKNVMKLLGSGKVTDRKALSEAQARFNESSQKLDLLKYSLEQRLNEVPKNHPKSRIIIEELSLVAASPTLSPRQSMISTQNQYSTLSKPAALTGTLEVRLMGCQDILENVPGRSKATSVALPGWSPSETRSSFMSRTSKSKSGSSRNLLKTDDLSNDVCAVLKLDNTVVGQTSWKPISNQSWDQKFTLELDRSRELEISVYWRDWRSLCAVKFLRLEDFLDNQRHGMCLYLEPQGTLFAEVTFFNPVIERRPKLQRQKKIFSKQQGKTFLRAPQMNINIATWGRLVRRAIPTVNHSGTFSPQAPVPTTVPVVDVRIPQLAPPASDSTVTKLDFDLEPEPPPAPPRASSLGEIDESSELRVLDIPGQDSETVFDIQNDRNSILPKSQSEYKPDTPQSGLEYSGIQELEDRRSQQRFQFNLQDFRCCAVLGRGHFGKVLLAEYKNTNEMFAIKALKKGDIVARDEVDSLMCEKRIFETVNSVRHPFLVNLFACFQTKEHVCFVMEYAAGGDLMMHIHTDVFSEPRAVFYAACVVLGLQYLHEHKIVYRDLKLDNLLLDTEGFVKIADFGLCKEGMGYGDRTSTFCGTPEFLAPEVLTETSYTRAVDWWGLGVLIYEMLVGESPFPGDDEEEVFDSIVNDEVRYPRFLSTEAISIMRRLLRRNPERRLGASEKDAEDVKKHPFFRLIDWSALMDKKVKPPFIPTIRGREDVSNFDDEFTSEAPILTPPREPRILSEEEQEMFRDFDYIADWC
Sequence of Serine/threonine-protein kinase 10 (Homo sapiens) (O94804 whole entry, looked up): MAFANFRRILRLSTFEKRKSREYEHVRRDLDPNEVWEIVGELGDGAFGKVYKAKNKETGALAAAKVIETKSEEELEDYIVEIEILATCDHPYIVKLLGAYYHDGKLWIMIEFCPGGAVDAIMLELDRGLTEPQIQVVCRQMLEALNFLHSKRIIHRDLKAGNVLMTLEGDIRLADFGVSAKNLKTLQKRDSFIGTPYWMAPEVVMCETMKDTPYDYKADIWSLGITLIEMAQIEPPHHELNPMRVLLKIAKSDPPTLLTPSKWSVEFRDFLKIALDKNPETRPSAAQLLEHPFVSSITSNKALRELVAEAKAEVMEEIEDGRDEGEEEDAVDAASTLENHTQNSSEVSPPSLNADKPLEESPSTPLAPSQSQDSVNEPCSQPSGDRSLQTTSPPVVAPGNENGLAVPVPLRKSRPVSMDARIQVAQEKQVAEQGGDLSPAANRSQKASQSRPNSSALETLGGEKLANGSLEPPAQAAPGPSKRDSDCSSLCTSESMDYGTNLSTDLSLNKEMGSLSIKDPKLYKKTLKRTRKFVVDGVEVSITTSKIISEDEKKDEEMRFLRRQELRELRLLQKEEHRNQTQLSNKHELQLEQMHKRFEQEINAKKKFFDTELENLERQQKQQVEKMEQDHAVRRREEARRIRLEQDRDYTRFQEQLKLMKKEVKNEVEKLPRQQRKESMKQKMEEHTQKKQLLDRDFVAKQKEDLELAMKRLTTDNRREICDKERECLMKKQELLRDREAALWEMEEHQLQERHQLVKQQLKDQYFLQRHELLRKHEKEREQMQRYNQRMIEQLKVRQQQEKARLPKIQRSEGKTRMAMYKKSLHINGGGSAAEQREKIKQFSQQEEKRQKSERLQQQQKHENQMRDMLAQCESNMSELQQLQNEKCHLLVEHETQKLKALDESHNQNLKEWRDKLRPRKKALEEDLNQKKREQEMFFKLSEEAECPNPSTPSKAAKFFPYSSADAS
Sequence of Leucine-rich repeat serine/threonine-protein kinase 2 (Homo sapiens) (Q5S007 whole entry): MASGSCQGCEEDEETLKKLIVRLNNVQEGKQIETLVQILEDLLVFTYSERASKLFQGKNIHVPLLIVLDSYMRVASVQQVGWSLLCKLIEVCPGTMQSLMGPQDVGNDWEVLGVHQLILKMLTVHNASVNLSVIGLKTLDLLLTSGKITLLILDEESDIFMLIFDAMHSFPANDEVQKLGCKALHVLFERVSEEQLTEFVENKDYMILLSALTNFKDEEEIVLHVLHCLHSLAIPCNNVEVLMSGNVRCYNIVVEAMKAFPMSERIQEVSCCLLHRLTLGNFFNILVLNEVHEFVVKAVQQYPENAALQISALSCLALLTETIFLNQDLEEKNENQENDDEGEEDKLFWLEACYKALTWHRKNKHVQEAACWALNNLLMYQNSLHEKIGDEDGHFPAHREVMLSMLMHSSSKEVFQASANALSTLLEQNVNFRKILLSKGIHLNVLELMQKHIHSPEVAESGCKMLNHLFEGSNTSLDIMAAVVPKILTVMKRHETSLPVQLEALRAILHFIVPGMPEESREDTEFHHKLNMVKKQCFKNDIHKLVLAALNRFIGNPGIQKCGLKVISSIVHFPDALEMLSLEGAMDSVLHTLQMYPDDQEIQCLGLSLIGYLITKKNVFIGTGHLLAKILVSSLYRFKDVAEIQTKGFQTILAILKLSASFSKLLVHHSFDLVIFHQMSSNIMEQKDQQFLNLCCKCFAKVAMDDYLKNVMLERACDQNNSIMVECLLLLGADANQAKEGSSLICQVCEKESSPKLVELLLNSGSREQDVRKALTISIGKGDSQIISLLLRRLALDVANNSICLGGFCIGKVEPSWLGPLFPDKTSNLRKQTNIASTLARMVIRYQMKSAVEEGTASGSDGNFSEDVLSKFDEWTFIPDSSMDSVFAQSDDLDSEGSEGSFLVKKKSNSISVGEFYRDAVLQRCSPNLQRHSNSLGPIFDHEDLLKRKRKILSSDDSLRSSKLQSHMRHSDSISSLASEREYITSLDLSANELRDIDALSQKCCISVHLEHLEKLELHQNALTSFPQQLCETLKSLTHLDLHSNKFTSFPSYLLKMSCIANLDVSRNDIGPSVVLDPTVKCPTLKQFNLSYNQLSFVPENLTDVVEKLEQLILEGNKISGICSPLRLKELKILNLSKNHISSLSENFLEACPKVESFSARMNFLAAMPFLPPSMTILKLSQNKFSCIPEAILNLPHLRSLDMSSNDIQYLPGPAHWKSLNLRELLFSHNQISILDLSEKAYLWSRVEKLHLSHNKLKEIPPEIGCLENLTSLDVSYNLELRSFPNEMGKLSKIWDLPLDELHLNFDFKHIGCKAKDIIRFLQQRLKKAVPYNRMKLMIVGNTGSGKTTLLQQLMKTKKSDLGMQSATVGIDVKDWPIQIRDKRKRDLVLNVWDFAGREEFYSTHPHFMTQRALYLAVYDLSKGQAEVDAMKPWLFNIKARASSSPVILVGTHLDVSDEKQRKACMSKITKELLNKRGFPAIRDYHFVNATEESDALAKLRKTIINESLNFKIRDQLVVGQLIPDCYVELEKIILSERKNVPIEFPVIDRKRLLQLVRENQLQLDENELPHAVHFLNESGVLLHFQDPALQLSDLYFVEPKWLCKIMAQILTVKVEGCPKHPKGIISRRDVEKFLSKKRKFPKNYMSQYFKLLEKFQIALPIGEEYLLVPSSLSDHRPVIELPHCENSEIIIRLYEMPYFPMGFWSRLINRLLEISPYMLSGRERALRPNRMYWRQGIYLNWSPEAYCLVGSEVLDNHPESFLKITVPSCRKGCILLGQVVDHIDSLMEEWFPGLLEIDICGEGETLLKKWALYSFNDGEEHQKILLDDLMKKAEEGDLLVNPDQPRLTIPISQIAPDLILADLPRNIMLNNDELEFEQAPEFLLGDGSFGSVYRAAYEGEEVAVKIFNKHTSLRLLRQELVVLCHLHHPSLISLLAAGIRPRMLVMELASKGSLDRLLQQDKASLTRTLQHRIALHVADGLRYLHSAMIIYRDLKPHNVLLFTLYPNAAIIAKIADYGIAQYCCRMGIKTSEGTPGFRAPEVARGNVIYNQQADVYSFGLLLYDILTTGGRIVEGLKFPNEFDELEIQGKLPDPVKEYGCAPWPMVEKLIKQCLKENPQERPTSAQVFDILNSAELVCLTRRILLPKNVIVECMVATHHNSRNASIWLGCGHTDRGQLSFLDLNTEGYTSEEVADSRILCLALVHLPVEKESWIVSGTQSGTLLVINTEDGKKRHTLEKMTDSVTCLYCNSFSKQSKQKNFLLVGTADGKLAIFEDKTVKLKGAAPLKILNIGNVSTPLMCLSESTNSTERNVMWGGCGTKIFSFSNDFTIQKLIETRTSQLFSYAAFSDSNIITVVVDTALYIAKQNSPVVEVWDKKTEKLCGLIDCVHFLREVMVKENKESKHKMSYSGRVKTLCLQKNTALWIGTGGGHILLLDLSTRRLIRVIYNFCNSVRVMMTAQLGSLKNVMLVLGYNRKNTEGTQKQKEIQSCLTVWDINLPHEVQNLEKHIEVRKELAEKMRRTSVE
Sequence of Serine/threonine-protein kinase RIO1 (Homo sapiens) (Q9BRS2 whole entry): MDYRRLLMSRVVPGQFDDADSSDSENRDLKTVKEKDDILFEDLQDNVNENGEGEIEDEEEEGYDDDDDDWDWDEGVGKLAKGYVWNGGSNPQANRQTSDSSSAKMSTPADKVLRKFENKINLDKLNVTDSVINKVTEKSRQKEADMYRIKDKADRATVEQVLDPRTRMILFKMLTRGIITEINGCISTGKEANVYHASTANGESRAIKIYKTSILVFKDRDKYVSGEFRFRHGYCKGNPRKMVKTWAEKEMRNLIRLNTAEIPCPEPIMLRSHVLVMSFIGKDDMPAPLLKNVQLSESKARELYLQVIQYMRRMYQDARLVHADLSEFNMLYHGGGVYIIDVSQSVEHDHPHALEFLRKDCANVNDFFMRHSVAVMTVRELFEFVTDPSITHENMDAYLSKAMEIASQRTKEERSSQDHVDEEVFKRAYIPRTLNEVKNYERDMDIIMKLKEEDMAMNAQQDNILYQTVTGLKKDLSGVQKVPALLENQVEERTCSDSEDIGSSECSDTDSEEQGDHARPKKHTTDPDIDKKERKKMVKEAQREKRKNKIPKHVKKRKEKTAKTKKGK

Cc1nc(C2CCN(C(=O)c3ccc(OC(F)(F)F)cc3N)CC2)c2ncc(N3CCN(C)CC3)cc2n1 [BAY-693]
inactive: residual activity [1] 81% | residual activity [2] 100% | residual activity [3] 96% | residual activity [4] 100% | residual activity [5] 91% | residual activity [6] 96% | residual activity [7] 89% | residual activity [8] 100% | residual activity [9] 100% | residual activity [10] 100% | residual activity [11] 92% | residual activity [12] 100% | inhibition [13] 4.68%

CN1CCN(c2cnc3c(C4CCN(C(=O)c5ccc(OC(F)(F)F)cc5N)CC4)ncnc3c2)CC1 [BAY-885]
inactive: residual activity [1] 98% | residual activity [2] 100% | residual activity [3] 93% | residual activity [4] 100% | residual activity [5] 100% | residual activity [6] 52% | residual activity [7] 100% | residual activity [8] 100% | residual activity [9] 100% | residual activity [10] 100% | residual activity [11] 100% | residual activity [12] 100% | inhibition [13] 4.33%
